Data from patent US11446286B1 (KING FAISAL UNIVERSITY, priority 2022, dated 2022).
Converted amounts (≈) assume the structure as drawn.

Tests used:
31 fungal strains = experiment: In vitro antifungal assays, all isolates; assay type: cell-based; conditions: over the fungal strains tested
Procedure: (§1) In vitro studies were performed including a total of 31 fungal strains. The strains were obtained from the American Type Culture Collection (ATCC) or were isolated locally and provided by the fungal research centers at Alazhar and Assiut universities, Egypt. Dabigatran's antifungal activity was tested against 31 fungal strains, as previously described. (Johnson, T. R. and Case, C. L., “Laboratory experiments in microbiology” Pearson/Benjamin Cummings (2004)) The in vitro studies included a total of 31 fungal strains. Fungal strains were separately grown in universal tubes with 20 ml of Sabouraud's dextrose broth for 3-7 days to create inocula for antifungal tests. Bioassays were carried out in 10 cm sterile Petri dishes containing 15 ml Sabouraud's dextrose agar medium and microbial suspension. Using a sterile cork borer, 5 mm diameter cavities were bored in the solidified agar (3 cavities/plate) after the media had hardened. […] Controls were prepared using DMSO and fluconazole. Candida cultures were incubated for 72 hours at 27° C., while other fungal cultures were incubated for up to seven days.

[1] = test system: Aspergillus furnigatus (RCMB 002008); experiment: In vitro antifungal assay (agar well); assay type: cell-based, Aspergillus fumigatus
Procedure: as §1

[2] = test system: Aspergillus flavus AUMC No. 1276; experiment: In vitro antifungal assay (agar well); assay type: cell-based
Procedure: as §1

[3] = test system: Aspergillus flavus RCMB 002002; experiment: In vitro antifungal assay (agar well); assay type: cell-based
Procedure: as §1

[4] = test system: Aspergillus fumigatus AUMC No. 14358; experiment: In vitro antifungal assay (agar well); assay type: cell-based
Procedure: as §1

[5] = test system: Aspergillus nidulans AUMC No. 14333; experiment: In vitro antifungal assay (agar well); assay type: cell-based
Procedure: as §1

[6] = test system: Aspergillus niger AUMC No. 14408; experiment: In vitro antifungal assay (agar well); assay type: cell-based
Procedure: as §1

[7] = test system: Aspergillus terreus AUMC No. 14389; experiment: In vitro antifungal assay (agar well); assay type: cell-based
Procedure: as §1

[8] = test system: Aspergillus ustus AUMC No. 3605; experiment: In vitro antifungal assay (agar well); assay type: cell-based
Procedure: as §1

[9] = test system: Candida albicans RCMB 005003 (1) ATCC 10231; experiment: In vitro antifungal assay (agar well); assay type: cell-based; conditions: 72 hours at 27° C.
Procedure: as §1

[10] = test system: Candida alibicans AUMC No. 9160; experiment: In vitro antifungal assay (agar well); assay type: cell-based; conditions: 72 hours at 27° C.
Procedure: as §1

[11] = test system: Candida glabrata AUMC No. 9166; experiment: In vitro antifungal assay (agar well); assay type: cell-based; conditions: 72 hours at 27° C.
Procedure: as §1

[12] = test system: Candida lipolytica RCMB 005007; experiment: In vitro antifungal assay (agar well); assay type: cell-based; conditions: 72 hours at 27° C.
Procedure: as §1

[13] = test system: Candida tropicalis AUMC No. 9158; experiment: In vitro antifungal assay (agar well); assay type: cell-based; conditions: 72 hours at 27° C.
Procedure: as §1

[14] = test system: Candida tropicalis RCMB 005004; experiment: In vitro antifungal assay (agar well); assay type: cell-based; conditions: 72 hours at 27° C.
Procedure: as §1

[15] = test system: Cryptococcus neoformans AUMC No. 2795; experiment: In vitro antifungal assay (agar well); assay type: cell-based
Procedure: as §1

[16] = test system: Cryptococcus neoformas RCMB 0049001; experiment: In vitro antifungal assay (agar well); assay type: cell-based
Procedure: as §1

[17] = test system: Fusarium moniliforme RCMB 001006; experiment: In vitro antifungal assay (agar well); assay type: cell-based
Procedure: as §1

[18] = test system: Microsporum canis AUMC No. 14454; experiment: In vitro antifungal assay (agar well); assay type: cell-based
Procedure: as §1

[19] = test system: Mucor circillelloides AUMC No. 3704; experiment: In vitro antifungal assay (agar well); assay type: cell-based
Procedure: as §1

[20] = test system: Penicillium aurantiogriseum IMI 89372; experiment: In vitro antifungal assay (agar well); assay type: cell-based
Procedure: as §1

[21] = test system: Penicillium italicum RCMB 001018 (1) IMI 193019; experiment: In vitro antifungal assay (agar well); assay type: cell-based
Procedure: as §1

[22] = test system: Penicillium marneffei AUMC No. 9370; experiment: In vitro antifungal assay (agar well); assay type: cell-based
Procedure: as §1

[23] = test system: Penicllium marneffeii RCMB 001034; experiment: In vitro antifungal assay (agar well); assay type: cell-based
Procedure: as §1

[24] = test system: Sporotlirix schenckii AUMC No. 2739; experiment: In vitro antifungal assay (agar well); assay type: cell-based
Procedure: as §1

[25] = test system: Trichophyton mentagrophytes AUMC No. 14492; experiment: In vitro antifungal assay (agar well); assay type: cell-based
Procedure: as §1

[26] = test system: Trichophyton rubrum AUMC No. 1804; experiment: In vitro antifungal assay (agar well); assay type: cell-based
Procedure: as §1

[27] = test system: Geotricurn candidum RCMB 026008; experiment: In vitro antifungal assay (agar well); assay type: cell-based, Geotricum candidum
Procedure: as §1

[28] = test system: Penicillium expansurn RCMB 001001 IMI28169; experiment: In vitro antifungal assay (agar well); assay type: cell-based, Penicillium expansum
Procedure: as §1

[29] = test system: Syncephalastrurn racemosum RCMB 016001; experiment: In vitro antifungal assay (agar well); assay type: cell-based, Syncephalastrum racemosum
Procedure: as §1

[30] = test system: C. albicans systemic infection; experiment: Systemic candidiasis mouse model; assay type: in vivo, mice; conditions: for lung histopathology (H&E): vs non-treated infected mice; for serum levels of ALT, AST, uric acid, and creatinine: systemic candidiasis, day 7, compared with infected nontreated group (combination: also vs noninfected control)
Procedure: (§2) Four-week-old mice were obtained from Kafrelshikh university animal sourcing. Food and water were given ad libitum. The mice were handled according to the instructions and regulations of the ethics committee.
(§3) To help in the induction of fungal infection, mice were immunocompromised by Endoxan® (cyclophosphamide), injected i.v. at a dose rate of 100 mg/kg. The injection of cyclophosphamide was at three and one days before infection. Systemic candidiasis and aspergillosis were induced by intravenous injection of 0.2 ml of each cell suspension into the tail vein using 1-ml syringe and a 27-G, ½-in. needle. The C. albicans cells and Aspergillus conidia were obtained as described above. After plating, the cells were suspended in sterile saline. Each mouse received 5×10^4 blastospores. All drugs were given at a dose rate of 5 mg/kg via the oral route suspended in methylcellulose. […] Treatment was continued daily for seven days. On the seventh day, the mice were sacrificed, and blood and tissue samples were collected. Tissue samples from liver, kidney, lungs, and heart were stored in 10% formalin and fixed for histopathological and immunohistochemical examination.
(§4) Standard histopathological sections stained with hematoxylin and eosin were performed. Immunohistochemistry was performed following the instructions of the antibodies manufacturer (Theiino Scientific, Waltman, MA, USA). The antibodies comprised CD45 and CXCR4.
Serum samples from the systemic candidiasis experiments discussed above were analyzed using known techniques to detect serum levels of ALT, AST, uric acid, and creatinine.

[31] = test system: A. fumigatus systemic infection; experiment: Systemic aspergillosis mouse model; assay type: in vivo, mice; conditions: for liver histopathology (H&E): vs infected animals; for heart histopathology (H&E): vs infected group; for serum levels of ALT, AST, uric acid, and creatinine: systemic A. fumigatus infection, day 7, compared with infected nontreated group (combination: also vs noninfected control)
Procedure: as §2, §3, §4
Serum samples from the systemic Aspergillus experiments discussed above were analyzed using known techniques to detect serum levels of ALT, AST, uric acid, and creatinine.

[32] = test system: C. albicans vaginal infection; experiment: Vaginal candidiasis mouse model; assay type: in vivo, mice; conditions: for CD45-positive cells in vaginal tissue (IHC, semi-quantitative) / vaginal histology (H&E): topical into the vagina 5 mg/kg daily for seven days; for CXCR4 expression in the vaginal epithelial mucosa (IHC): treated for 7 days, vs C. albicans infected Model animals
Procedure: Standard histopathological sections stained with hematoxylin and eosin were performed. Immunohistochemistry was performed following the instructions of the antibodies manufacturer (Theiino Scientific, Waltman, MA, USA). The antibodies comprised CD45 and CXCR4. Mice vagina infected with C. albicans was used to evaluate the anticandidal actions of dabigatran. To help in induction of vaginal candidiasis, mice were immunocompromised by injection of 0.1 mg of β-estradiol in 10 μl of sesame oil 72 h and 24 h before vaginal infection for induction of estrus. Infection was done during the estrus phase by intravaginal dropping of the Candida blastoconidia. Each mouse received 3×10^6 blastospores into the vaginal cavity. Uninoculated control mice (the control group) were injected intravaginally with sterile saline. […] All drugs were given topically into the vagina at a dose rate of 5 mg/kg daily for seven days post-infection. On the seventh day, the mice were sacrificed, and blood and vaginal samples were collected. At ×400 magnification, five visual random fields were analyzed. An adopted procedure was used to assess the degree of infection and inflammation (Zhang, J. E., et al., “Feasibility of histological scoring and colony count for evaluating infective severity in mouse vaginal candidiasis,” Experimental Animals, 62(3): pp. 205-10 (2013)). The average scores of five fields were recorded.

[33] = immunocompromised mice, C. albicans i.v., 5 mg/kg oral daily for seven days
[34] = immunocompromised mice, A. fumigatus i.v., 5 mg/kg oral daily for seven days

Q: `CCCCCCOC(=O)NC(=N)c1ccc(NCc2nc3cc(C(=O)N(CCC(=O)OCC)c4ccccn4)ccc3n2C)cc1` [Dabigatran etexilate] was tested. Which “range of MIC values” (31 fungal strains) did it give?
A: 8 to 256 mg/L

Q: And the MIC [1]?
A: 64 mg/L (≈ 102 µM)

Q: And the MIC [2]?
A: 64 mg/L (≈ 102 µM)

Q: And the MIC [3]?
A: 128 mg/L (≈ 204 µM)

Q: What about the MIC [4] of the same compound?
A: 128 mg/L (≈ 204 µM)

Q: What about the MIC [5] of the same compound?
A: 64 mg/L (≈ 102 µM)

Q: What about the MIC [6] of the same compound?
A: 128 mg/L (≈ 204 µM)

Q: And the MIC [7]?
A: 128 mg/L (≈ 204 µM)

Q: What about the MIC [8] of the same compound?
A: 64 mg/L (≈ 102 µM)

Q: What about the MIC [9] of the same compound?
A: 16 mg/L (≈ 25.5 µM)

Q: And the MIC [10]?
A: 32 mg/L (≈ 51 µM)

Q: What about the MIC [11] of the same compound?
A: 32 mg/L (≈ 51 µM)

Q: And the MIC [12]?
A: 16 mg/L (≈ 25.5 µM)

Q: What about the MIC [13] of the same compound?
A: 128 mg/L (≈ 204 µM)

Q: And the MIC [14]?
A: 128 mg/L (≈ 204 µM)

Q: And the MIC [15]?
A: 32 mg/L (≈ 51 µM)

Q: And the MIC [16]?
A: 16 mg/L (≈ 25.5 µM)

Q: And the MIC [17]?
A: 16 mg/L (≈ 25.5 µM)

Q: And the MIC [18]?
A: 128 mg/L (≈ 204 µM)

Q: And the MIC [19]?
A: 64 mg/L (≈ 102 µM)

Q: And the MIC [20]?
A: 32 mg/L (≈ 51 µM)

Q: What about the MIC [21] of the same compound?
A: 64 mg/L (≈ 102 µM)

Q: What about the MIC [22] of the same compound?
A: 64 mg/L (≈ 102 µM)

Q: And the MIC [23]?
A: 256 mg/L (≈ 408 µM)

Q: What about the MIC [24] of the same compound?
A: 16 mg/L (≈ 25.5 µM)

Q: And the MIC [25]?
A: 32 mg/L (≈ 51 µM)

Q: And the MIC [26]?
A: 32 mg/L (≈ 51 µM)

Q: And the MIC [27]?
A: 32 mg/L (≈ 51 µM)

Q: What about the MIC [28] of the same compound?
A: 128 mg/L (≈ 204 µM)

Q: And the MIC [29]?
A: 8 mg/L (≈ 12.7 µM)

Q: And the “kidney histopathology (H&E)” value [30, 33]?
A: minor histological differences

Q: And the “liver histopathology (H&E)” value [30, 33]?
A: typical hepatic architecture with the presence of very few inflammatory cells, moderate degeneration, and no necrosis

Q: And the “lung histopathology (H&E)” value [30, 33]?
A: substantially improved

Q: And the “protective effect against systemic C. albicans fungal infection” value ([30]; mice, 5 mg/kg oral daily for seven days)?
A: potent protective effect

Q: And the “serum levels of ALT, AST, uric acid, and creatinine” value (from here on “serum levels of ALT, AST, uric acid”) [30]?
A: significantly decreased all serum markers

Q: And the “kidney histopathology (H&E)” value [31, 34]?
A: modest improvements

Q: And the “lung histopathology (H&E), inflammation” value [31, 34]?
A: decreased airspace areas because of red blood cells extravasation

Q: What about the “liver histopathology (H&E)” value [31, 34] of the same compound?
A: Comparable histopathological injuries

Q: And the “heart histopathology (H&E)” value [31, 34]?
A: comparable

Q: What about the “serum levels of ALT, AST, uric acid” value [31] of the same compound?
A: significantly decreased all serum markers

Q: What about the “CD4+ T cells in vaginal tissue (IHC, figure legends)” value ([32]; FIGS. 18 and 19, number / migration to lamina propria) of the same compound?
A: dramatically decreased

Q: What about the “CD45-positive cells in vaginal tissue (IHC, semi-quantitative)” value [32] of the same compound?
A: Mild to moderate CD45-positive cells spread across the submucosa

Q: What about the “vaginal histology (H&E)” value [32] of the same compound?
A: considerable reduction in inflammation and injury to the vaginal epithelial mucosa

Q: And the “CXCR4 expression in the vaginal epithelial mucosa (IHC)” value [32]?
A: significant decrease

Q: How did the “liver histopathology (H&E)” value [30, 33] turn out when `OC(Cn1cncn1)(Cn1cncn1)c1ccc(F)cc1F` [fluconazole] was run?
A: moderate inflammatory cell infiltration in the perivascular regions, mild sinusoidal congestion, and few apoptotic cells

Q: What about the “lung histopathology (H&E)” value [30, 33] of the same compound?
A: slightly ameliorated the lung damage

Q: What about the “serum levels of ALT, AST, uric acid” value [30] of the same compound?
A: significant decrease in ALT levels only

Q: And the “liver histopathology (H&E)” value [31, 34]?
A: Comparable histopathological injuries

Q: What about the “heart histopathology (H&E)” value [31, 34] of the same compound?
A: comparable

Q: And the “serum levels of ALT, AST, uric acid” value [31]?
A: significant decrease in all markers, except creatinine

Q: What about the “CD45-positive cells in vaginal tissue (IHC, semi-quantitative)” value [32] of the same compound?
A: Mild to moderate CD45-positive cells spread across the submucosa

Q: What about the “vaginal histology (H&E)” value [32] of the same compound?
A: modest sub-epithelial inflammatory reaction

Q: What about the “CXCR4 expression in the vaginal epithelial mucosa (IHC)” value [32] of the same compound?
A: significant decrease
